Assay results taken from patent publication US6743583B2, “Identification of drugs and drug targets by detection of the stress response” (priority 2000, dated 2004).

Columns and labels:
[1] = system: yeast stress response genes; details: MMS 0.1%; published data; cited from earlier work
[2] = system: tub2 heterozygote; experiment: HSP26 promoter GFP-uv reporter stress response, fluorimeter; assay type: cell-based, Saccharomyces cerevisiae; design: key: F = fluorescent activity from hsp reporter construct, indicating stress response is induced; NF = no fluorescence, no induction of stress response; details: predicted expectations
Description: (§1) Stress response gene reporter constructs are generally constructed as follows: approximately 500 bp to approximately 1,000 bp or more region upstream of the first start codon of the stress gene of interest (the region encompassing the stress response gene promoter) is fused to the coding region of a reporter polypeptide (e.g., GFP-uv in pRS316 (Sikorski and Hieter (1989) Genetics 122(1):19-27, Clontech). In a specific exemplary construct, approximately 500 bp of the sequence upstream of the hsp26 gene were ligated to the coding region of GFP-uv in pRS316 to provide for expression of the GFP-uv reporter polypeptide under control of the HSP26 promoter.
(§2) 80% of all heterozygous deletion strains of Saccharomyces cerevisiae have been constructed. Heterozygous deletion strains were generated using homologous gene transplacement (Rothstein, R. (1991) Meth. Enzymol. 194:281-301) in wild-type diploid strains using standard methods. The resulting heterozygotes carry a deletion in one of the two copies of a given gene.
(§3) The above-described HSP26 construct and a control construct (containing no upstream HSP26 promoter sequence) is transformed into 4 strains: a wildtype strain and strains heterozygous for ALG7, HIS3, and TUB2. The his3 heterozygous strain is sensitive to 3-amino triazole; the alg7 heterozygous strain is sensitive to tunicamycin; and the tub2 heterozygous strain is sensitive to benomyl. The expression of hsp26 activity is then monitored using a fluorimeter. Comparisons (with predicted expectations) are as follows: […]

[3] = system: his3 heterozygote; experiment: as above; assay type: cell-based, Saccharomyces cerevisiae; design: key: F = fluorescent activity from hsp reporter construct, indicating stress response is induced; NF = no fluorescence, no induction of stress response; details: predicted expectations
Description: as §1, §2, §3

[4] = system: alg7 heterozygote; experiment: as above; assay type: cell-based, Saccharomyces cerevisiae; design: key: F = fluorescent activity from hsp reporter construct, indicating stress response is induced; NF = no fluorescence, no induction of stress response; details: predicted expectations
Description: as §1, §2, §3

[5] = system: Wildtype strain; experiment: Microarray fold transcriptional induction of stress response genes; assay type: cell-based, Saccharomyces cerevisiae
Protocol: (§4) In order to identify stress response genes suitable for use in the methods of the present invention, the induction of various stress response genes was tested using microarrays. Three 50 ml cultures were grown at 30° C., a wildtype strain, an alg7 heterozygous strain, and a ymr007w heterozygous strain (the ymr007w strain has been previously shown to be sensitive to tunicamycin, see Giaever, G. et al. (1999) Nature Genet. 21(3):278-283). The wildtype strain was grown in the absence of drug as well as in the presence of […] tunicamycin at an O.D.600 of 1, or approximately 2×10^7 cells/ml for one hour. The alg7 and ymr007w heterozygotes were grown in the presence of […] tunicamycin at an O.D.600 of 1, or approximately 2×10^7 cells/ml for 1 hour. mRNA was then collected from all four samples using standard techniques. cDNA was then prepared from […] of polyadenylated RNA from each sample, using a dT21 primer and Superscript II reverse transcriptase (GibcoBRL) according to manufacturer's recommendation. cDNA was fragmented using DNAseI (GibcoBRL), biotinylated using ddATP (NEN) and Terminal Transferase (Boehringer), and hybridized to yeast full genome arrays (Affymetrix) as described in L. Wodicka et al. (1997) Nature Biotechnol. 15, 1359-1367. Data was analyzed using Affymetrix software.
The fold induction of the indicated stress response gene is relative to expression levels in the absence of exposure to the indicated stimuli for the wildtype strain.

[6] = system: ymr007w heterozygous strain; experiment: as above; assay type: cell-based, Saccharomyces cerevisiae; details: ymr007w heterozygote, tunicamycin 0.6 μM, 1 hr, relative to wildtype no drug
Protocol: as §4
(§5) In other experiments, the alg 7 and vmr007 heterozygous deletion strains were tested for induction of the stress response in the presence of 0.6 μM tunicamycin for 1 hr (for detailed methods see Example 4). The numbers indicate the fold induction (positive values) or the fold repression (negative values) relative to that of wildype expression in the absence of drug.

[7] = system: alg7 heterozygous strain; experiment: as above; assay type: cell-based, Saccharomyces cerevisiae; details: alg7 heterozygote, tunicamycin 0.6 μM, 1 hr, relative to wildtype no drug
Protocol: as §4, §5

[8] = system: alg7 heterozygous strain; details: cited from earlier work
[9] = system: Wildtype strain; experiment: HSP26 promoter GFP-uv reporter stress response, fluorimeter; assay type: cell-based, Saccharomyces cerevisiae; design: key: F = fluorescent activity from hsp reporter construct, indicating stress response is induced; NF = no fluorescence, no induction of stress response; details: predicted expectations
Description: as §1, §3

[10] = system: ymr007w strain; details: previously shown, Giaever et al. 1999; cited from earlier work
[11] = system: tub2 heterozygous strain; details: cited from earlier work
[12] = TUN 0.6 μM, wildtype, relative to no drug
[13] = Wildtype, tunicamycin 0.6 μM, 1 hr, relative to wildtype no drug (Table 9)

COS(C)(=O)=O [MMS]
fold induction of AMS1 (YGL156W) [1]: 3.3 fold | fold induction of DDR48 (YMR173w) [1]: 6 fold | fold induction of GFA1 (YKL104C) [1]: 3.3 fold | fold induction of GSC2 (YGR032W) [1]: 2.5 fold | fold induction of HSP10 (YOR020C) [1]: 1 fold | fold induction of HSP12 (YFL014W) [1]: 4.2 fold | fold induction of HSP26 (YBR072W) [1]: 2.6 fold | fold induction of HSP30 (YCR021C) [1]: 2 fold | fold induction of HSP42 (YDR171w) [1]: 1.5 fold | fold induction of HSP60 (YLR259C) [1]: 1 fold | fold induction of HSP78 (YDR258C) [1]: 2.8 fold | fold induction of HSP82 (YPL240C) [1]: 1.8 fold | fold induction of HSP104 (YLL026W) [1]: 2 fold | fold induction of HXT5 (YHR096C) [1]: 1.9 fold | fold induction of ISF1 (YMR081C) [1]: 2.9 fold | fold induction of PAI3 (YMR174C) [1]: 5.1 fold | fold induction of PRY1 (YJL079C) [1]: 1 fold | fold induction of PUT1 (YLR142W) [1]: 1 fold | fold induction of SNZ3 (YFL059W) [1]: 2.3 fold | fold induction of SSA1 (YAL005C) [1]: 6.4 fold | fold induction of TSI1 (YLR178C) [1]: 5.7 fold | fold induction of UBC5 (YDR059c) [1]: 5.5 fold | fold induction of YBL049W [1]: 1 fold | fold induction of YDR018C [1]: 1 fold | fold induction of YFL030W [1]: 5 fold | fold induction of YFR026C [1]: 2.2 fold | fold induction of YGR043C [1]: 3.5 fold | fold induction of YIL042C [1]: 1.4 fold | fold induction of YIL117C [1]: 2.3 fold | fold induction of YJL144W [1]: 1.6 fold | fold induction of YKL107W [1]: 1.7 fold | fold induction of YLR053C [1]: 1 fold | fold induction of YLR080W [1]: 5.6 fold | fold induction of YLR194C [1]: 1 fold | fold induction of YMR040W [1]: 1.5 fold | fold induction of YMR090W [1]: 8 fold | fold induction of YMR107W [1]: 1 fold | fold induction of YNL194C [1]: 2.9 fold | fold induction of YPS3 (YLR121C) [1]: 1 fold

tunicamycin
fluorescent activity from hsp26 reporter construct [2]: F | fluorescent activity from hsp26 reporter construct [3]: F | fluorescent activity from hsp26 reporter construct [4]: NF | fold induction of AMS1 (YGL156W) [5, 12]: 20 fold | fold induction of DDR48 (YMR173w) [5, 12]: 4.3 fold | fold induction of GFA1 (YKL104C) [5, 12]: 11.2 fold | fold induction of GSC2 (YGR032W) [5, 12]: 9.2 fold | fold induction of HSP10 (YOR020C) [5, 12]: 2 fold | fold induction of HSP12 (YFL014W) [5, 12]: 2.9 fold | fold induction of HSP26 (YBR072W) [5, 12]: 18 fold | fold induction of HSP30 (YCR021C) [5, 12]: 2 fold | fold induction of HSP42 (YDR171w) [5, 12]: 6 fold | fold induction of HSP60 (YLR259C) [5, 12]: 1 fold | fold induction of HSP78 (YDR258C) [5, 12]: 6.5 fold | fold induction of HSP82 (YPL240C) [5, 12]: 2.8 fold | fold induction of HSP104 (YLL026W) [5, 12]: 2 fold | fold induction of HXT5 (YHR096C) [5, 12]: 200 fold | fold induction of ISF1 (YMR081C) [5, 12]: 3.5 fold | fold induction of PAI3 (YMR174C) [5, 12]: 6.1 fold | fold induction of PRY1 (YJL079C) [5, 12]: 13 fold | fold induction of PUT1 (YLR142W) [5, 12]: 25 fold | fold induction of SNZ3 (YFL059W) [5, 12]: 25 fold | fold induction of SSA1 (YAL005C) [5, 12]: 1 fold | fold induction of TSI1 (YLR178C) [5, 12]: 6.2 fold | fold induction of UBC5 (YDR059c) [5, 12]: 2.1 fold | fold induction of YBL049W [5, 12]: 15 fold | fold induction of YDR018C [5, 12]: 7.5 fold | fold induction of YFL030W [5, 12]: 11 fold | fold induction of YFR026C [5, 12]: 20.9 fold | fold induction of YGR043C [5, 12]: 17 fold | fold induction of YIL042C [5, 12]: 5 fold | fold induction of YIL117C [5, 12]: 13 fold | fold induction of YJL144W [5, 12]: 19.1 fold | fold induction of YKL107W [5, 12]: 112 fold | fold induction of YLR053C [5, 12]: 200 fold | fold induction of YLR080W [5, 12]: 8.4 fold | fold induction of YLR194C [5, 12]: 5.1 fold | fold induction of YMR040W [5, 12]: 12.8 fold | fold induction of YMR090W [5, 12]: 5.6 fold | fold induction of YMR107W [5, 12]: 79 fold | fold induction of YNL194C [5, 12]: 4.5 fold | fold induction of YPS3 (YLR121C) [5, 12]: 15 fold | fold induction (positive) or fold repression (negative) of HSP26 (YBR072W) [5, 13]: 17 fold | fold induction (positive) or fold repression (negative) of HXT5 (YHR096C) [5, 13]: 50 fold | fold induction (positive) or fold repression (negative) of YGR043C [5, 13]: 17 fold | fold induction (positive) or fold repression (negative) of YMR107W [5, 13]: 40 fold | fold induction (positive) or fold repression (negative) of YPS3 (YLR121C) [5, 13]: 15 fold | fold induction (positive) or fold repression (negative) of HSP26 (YBR072W) [6]: 1.4 fold | fold induction (positive) or fold repression (negative) of HXT5 (YHR096C) [6]: 1 fold | fold induction (positive) or fold repression (negative) of YMR107W [6]: 1 fold | fold induction (positive) or fold repression (negative) of HXT5 (YHR096C) [7]: 1 fold | fold induction (positive) or fold repression (negative) of YMR107W [7]: 1 fold | sensitivity of strain to drug [8]: sensitive | fluorescent activity from hsp26 reporter construct [9]: F | sensitivity of strain to drug [10]: sensitive

CCCCNC(=O)n1c(NC(=O)OC)nc2ccccc21 [benomyl]
fluorescent activity from hsp26 reporter construct [2]: NF | fluorescent activity from hsp26 reporter construct [3]: F | fluorescent activity from hsp26 reporter construct [4]: F | sensitivity of strain to drug [11]: sensitive | fluorescent activity from hsp26 reporter construct [9]: F
